We go through 1 molecule from article PMC10536132, “Arginine Gemini-Based Surfactants for Antimicrobial and Antibiofilm Applications: Molecular Interactions, Skin-Related Anti-Enzymatic Activity and Cytotoxicity” (Molecules, 2023).

Marks after values point to notes of the source that are not given here.

Series [1] has as its system bovine hyaluronidase. Put plainly: Hyaluronidase inhibitory activity. Format: biochemical. The conditions noted are these: negative inhibition values. An outline of the steps: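 Bovine hyaluronidase (7900 units/mL working solution, 0.1 M acetate pH 3.6) was mixed 1:1 with surfactant in 5% DMSO for 20 min at 37 °C, then with CaCl2 (12.5 mM) for 20 min, then sodium hyaluronate (1.2 mg/mL) for 40 min. The p-dimethylaminobenzaldehyde colour was read at 585 nm. % inhibition = (A1−A2)/A1×100.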

On the set-up of series [2]: method as in doi:10.1021/la981295l. The conditions noted are these: cited from earlier work.
Series [3] has as its system immortal human keratinocytes (HaCaT). Put plainly: Cell viability, NRU assay. The class given is cell-based. The protocol:
(§1) The immortal human keratinocyte (HaCaT) and the squamous cell carcinoma (A431) were obtained from Celltec, University of Barcelona. The cells were grown in DMEM medium (4.5 g/L glucose) supplemented with 10% (v/v) FBS, 2 mM L-glutamine, 100 U/mL of penicillin and 100 μg/mL of streptomycin at 37 °C under 5% CO2. Cells were routinely cultured in 75 cm^2 culture flasks and were trypsinized using trypsin-EDTA when reached approximately 80% of confluence.
(§2) HaCaT cells (1 × 10^5 cells/mL) and A431 cells (5 × 10^4 cells/mL) were grown at the defined densities into the central 60 wells of a 96-well microplate. Cells were incubated for 24 h under 5% CO2 at 37 °C. The medium was then removed and the cells were incubated with the surfactants (100 μL), previously diluted 1:1 (v/v), reaching a concentration of […] in DMEM medium supplemented with 5% FBS using two different colorimetric methods for quantification, as follows.
(§3) The accumulation of the neutral red dye in the lysosomes of viable, undamaged cells constitutes the basis of the neutral red uptake (NRU) assay. After the cells were incubated for 24 h with the corresponding systems at 35.6 µg/mL, the medium was removed and the surfactants´ solutions were incubated for 3 h with the NRU dye solution (50 μg/mL) dissolved in the medium without FBS and phenol red (Lonza). Cells were then washed with sterile PBS, followed by the addition of 100 μL of a solution containing 50% ethanol absolute and 1% acetic acid in distilled water to extract the non-adhered dye. The microplates were then stirred for 5 min at 25 °C to promote the dissolution. Finally, the absorbance of the resulting solutions was measured at λ = 550 nm using a Bio-Rad 550 microplate reader (Hercules, CA, USA).

A short description of series [4]: Cell viability, NRU assay. The conditions noted are these: human, HaCaT cells (immortal human keratinocytes); NRU, HaCaT, surfactant in solution at 35.6 µg/mL, 24 h; read-out: cellular viability. The class given is cell-based, human. Here is the method:
as §1, §2, §3

Series [5] has as its system Pseudomonas aeruginosa PAO1 biofilm. Put plainly: Biofilm eradication, crystal violet. Format: cell-based. The conditions noted are these: P. aeruginosa PAO1, at 32 μg/mL. Here is the method: (§4) The ability of these geminis to disperse and eradicate biofilms once formed on the propylene surfaces of the microtiter plates was evaluated using the same bacterial strains. […] The susceptibility of both biofilms against the tested surfactants was similar. At a low concentration of 32 μg/mL, C3(CA)2 and C3(LA)2 were able to eradicate around 60–70% of preformed biofilm; however, at this concentration, the […] hydrophobic compound, C3(OA)2, eradicated less than 30% of biofilm. At high concentrations, the eradication percentage is similar for all alkyl chains. […] In this case, at low concentrations, there is not a clear dependence between the antibiofilm properties and the spacer; however, at a high concentration, the best effectivity was obtained for the longer spacer chains.
(§5) Antibiofilm activity was assessed against biofilm-producing strains of methicillin-resistant Staphylococcus aureus (MRSA) ATCC 43300 and Pseudomonas aeruginosa PAO1. Biofilm inhibition and eradication capacities of the gemini surfactants were evaluated against adherent bacterial biofilms grown in 96-well microtiter plates. Bacteria were grown overnight in tryptic soy agar at 37 °C for 24 h. The bacteria were suspended in lysogeny broth with glucose (1%) at 1.5 × 10^8 CFU/mL.
(§6) Biofilm eradication procedure: For mature biofilm formation, 200 μL of the diluted bacterial suspension was added to each well in a 96-well microplate and incubated at 37 °C for 24 h. The wells were gently rinsed with phosphate-buffered saline (PBS) and 200 μL of the corresponding gemini surfactant solution was added to each well and incubated again at 37 °C for 24 h. Two-fold serial dilutions of the gemini surfactant were used (4–128 μg/mL). After the plates were air dried, the biofilms were stained with 50 μL of 0.1 of % crystal violet for 25 min. The plates were rinsed with water and then 150 μL of 96% ethanol containing 10% acetic acid was added to all 96-well plates to dissolve the remaining crystal violet-stained biofilm. The absorbance value was recorded at 570 nm. Each assay was conducted at least three times and the results were averaged.

Series [6] has as its system methicillin-resistant Staphylococcus aureus (MRSA) ATCC 43300 biofilm. The experiment in a line: Biofilm eradication, crystal violet. The conditions noted are these: at 32 μg/mL. Format: cell-based. Here is the method: as §4, §5, §6
Series [7] has as its target porcine pancreatic elastase (Sus scrofa, UniProt P00772). Put plainly: Elastase inhibitory assay. Format: biochemical. The conditions noted are these: 40 µL of 1000 µg/mL stock; EGCG 250 μM. In outline: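 Porcine pancreatic elastase preincubated 15 min with diluted surfactant samples, then N-succinyl-(Ala)3-p-nitroanilide substrate added in Tris-HCl pH 8.0. Absorbance at 410 nm followed for 2 h; % inhibition from absorbance without versus with sample, in triplicate.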

Sequence of porcine pancreatic elastase (P00772 27-266): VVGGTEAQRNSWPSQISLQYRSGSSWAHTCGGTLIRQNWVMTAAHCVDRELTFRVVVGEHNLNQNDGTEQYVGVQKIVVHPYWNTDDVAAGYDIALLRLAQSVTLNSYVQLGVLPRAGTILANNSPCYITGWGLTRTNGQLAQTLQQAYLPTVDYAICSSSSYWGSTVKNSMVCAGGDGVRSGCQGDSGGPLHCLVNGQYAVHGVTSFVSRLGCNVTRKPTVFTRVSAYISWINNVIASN

As for `CCCCCCCCCCCC(=O)NC(CCCNC(=N)N)C(=O)NCCCNC(=O)C(CCCNC(=N)N)NC(=O)CCCCCCCCCCC` (stereo not drawn) [C3(LA)2, Bis (N^α-lauroyl arginine 1,3-propane) diamide], the “increase of hyaluronidase enzymatic activity” value in series [1] amounted to 48.3%. For the same molecule, the “CMC (mM) Surface Tension” value in series [2] is given as 0.005 * mM. The γcmc in series [2] (surface tension at the cmc) is recorded as 35 * mN/m. In series [3] (Homo sapiens, NRU method, HaCaT, above the highest tested concentration), the IC50 was greater than 35.6 µg/mL. Besides, in series [3] (NRU, HaCaT IC50 versus MIC against the Gram-positive bacteria, E. coli and PA01), the “therapeutic index (TI), IC50/MIC ratio” value was “higher than one”. Also, in series [4], the viability at 24 h, 35.6 µg/mL is 66.2%. The preformed biofilm eradicated in series [5] and in series [6] was 60–70% each time. Further, in series [7], the “anti-elastase activity (inhibition)” value is 17%.
